Measurements taken from patent publication US10793563B2, “GCN2 inhibitors and uses thereof” (Merck Patent GmbH, priority 2018, dated 2020).

Each compound was assayed against GCN2 kinase (Homo sapiens (Human), UniProt Q9P2K8) (assay: GCN2 Enzyme Inhibition Assay (Transcreener ADP2 fluorescence polarization)). Conditions: 280 μM ATP, 200 μM (RS)7 peptide, 4 nM GCN2, 25° C.
Format: biochemical
Method: Compounds were screened for their ability to inhibit GCN2 kinase activity using a Transcreener® ADP^2 fluorescence polarization assay that detects ADP levels (BellBrook Labs, WI). Assays were carried out in a buffer consisting of 25 mM Tris-HCl (pH 7.5), 50 mM NaCl, 10 mM MgCl2 and 1 mM DTT. […] Assays were carried out at 25° C. in the presence of a (typical) final concentration of 4 nM GCN2 kinase. An assay buffer containing GCN2 kinase and (RS)7 was prepared. […] The plate was incubated for 10 minutes at 25° C. prior to the addition of 4.7 μL of ATP stock buffer to initiate the enzyme reaction. The reaction was allowed to proceed for 1 hour at 25° C., prior to the addition of 10 μL detection buffer (consisting of appropriate concentrations of ADP^2 antibody and ADP Alexa633 tracer in 1× stop and detect buffer as supplied by BellBrook Labs). […] Percentage inhibition of enzyme activity was then calculated at each compound dose. IC50 and Ki(app) (using known assay and kinetic parameters) values were calculated from percentage inhibition data using a non-linear, tight-binding algorithm. All data analysis was undertaken using the Screener® software package (Genedata, Switzerland).

GCN2 kinase, sequence (Q9P2K8 whole entry): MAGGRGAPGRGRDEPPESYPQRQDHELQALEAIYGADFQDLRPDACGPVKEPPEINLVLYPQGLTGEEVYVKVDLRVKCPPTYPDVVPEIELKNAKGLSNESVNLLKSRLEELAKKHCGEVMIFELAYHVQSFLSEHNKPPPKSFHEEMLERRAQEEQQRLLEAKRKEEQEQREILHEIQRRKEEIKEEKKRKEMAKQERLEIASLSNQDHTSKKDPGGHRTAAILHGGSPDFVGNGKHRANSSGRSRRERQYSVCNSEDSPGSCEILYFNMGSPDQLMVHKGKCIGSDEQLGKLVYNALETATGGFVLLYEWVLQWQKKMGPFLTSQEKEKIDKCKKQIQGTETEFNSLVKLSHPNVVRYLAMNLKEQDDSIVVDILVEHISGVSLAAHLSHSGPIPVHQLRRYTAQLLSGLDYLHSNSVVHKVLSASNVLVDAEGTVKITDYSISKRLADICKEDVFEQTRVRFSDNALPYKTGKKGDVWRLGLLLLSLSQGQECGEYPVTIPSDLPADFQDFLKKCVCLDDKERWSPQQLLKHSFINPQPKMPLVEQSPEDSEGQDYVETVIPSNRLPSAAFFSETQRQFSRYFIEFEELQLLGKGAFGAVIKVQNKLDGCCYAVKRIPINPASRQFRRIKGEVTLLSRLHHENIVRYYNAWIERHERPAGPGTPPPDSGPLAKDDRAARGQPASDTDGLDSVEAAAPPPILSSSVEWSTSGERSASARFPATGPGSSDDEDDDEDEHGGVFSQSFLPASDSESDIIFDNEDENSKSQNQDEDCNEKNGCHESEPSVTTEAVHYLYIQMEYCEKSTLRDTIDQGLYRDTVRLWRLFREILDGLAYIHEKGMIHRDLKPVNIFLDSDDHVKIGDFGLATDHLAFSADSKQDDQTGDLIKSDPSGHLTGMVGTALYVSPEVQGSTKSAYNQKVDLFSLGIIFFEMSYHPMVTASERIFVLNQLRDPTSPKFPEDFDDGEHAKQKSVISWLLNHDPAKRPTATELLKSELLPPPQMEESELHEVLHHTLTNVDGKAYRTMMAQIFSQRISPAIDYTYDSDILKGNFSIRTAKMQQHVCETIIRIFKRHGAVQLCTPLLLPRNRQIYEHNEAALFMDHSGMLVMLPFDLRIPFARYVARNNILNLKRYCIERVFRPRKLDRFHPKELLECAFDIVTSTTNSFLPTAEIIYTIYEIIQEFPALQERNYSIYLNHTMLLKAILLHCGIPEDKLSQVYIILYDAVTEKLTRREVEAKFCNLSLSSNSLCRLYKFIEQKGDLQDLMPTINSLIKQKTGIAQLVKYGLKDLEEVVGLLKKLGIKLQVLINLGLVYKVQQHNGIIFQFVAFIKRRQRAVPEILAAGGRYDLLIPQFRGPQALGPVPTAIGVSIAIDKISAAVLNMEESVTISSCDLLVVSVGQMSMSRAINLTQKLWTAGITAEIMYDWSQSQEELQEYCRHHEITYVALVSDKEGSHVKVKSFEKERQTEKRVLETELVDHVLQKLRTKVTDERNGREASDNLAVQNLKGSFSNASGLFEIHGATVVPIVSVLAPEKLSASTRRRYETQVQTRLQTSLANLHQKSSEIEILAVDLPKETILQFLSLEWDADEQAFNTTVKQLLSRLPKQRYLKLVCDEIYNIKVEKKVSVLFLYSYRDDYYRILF

Compound	IC50 [µM]
CC1(C)CN(c2ccnc(-c3cnc4ccc(C(F)(F)F)cn34)n2)CCN1CC(F)(F)F [I-333, 3-(4-(3,3-dimethyl-4-(2,2,2-trifluoroethyl)piperazin-1-yl)pyrimidin-2-yl)-6-(trifluoromethyl)imidazo[1,2-a]pyridine]	0.1 to 1
CC1C(C(N)=O)NCCN1c1ccnc(-c2cnc3cc(F)c(C4CC4)cn23)n1 (centres unmarked) [I-427, 4-(2-(6-cyclopropyl-7-fluoroimidazo[1,2-a]pyridin-3-yl)pyrimidin-4-yl)-3-methylpiperazine-2-carboxamide]	0.01 to 0.1
N[C@H]1C[C@H](O)CN(c2ccnc(-c3cnc4ccc(C(F)(F)F)cn34)n2)C1 [I-239, (3 S,5S)-5-amino-1-(2-(6-(trifluoromethyl)imidazo[1,2-a]pyridin-3-yl)pyrimidin-4-yl)piperidin-3-ol]	0.1 to 1
N#CC1(C(=O)n2cc([C@@H]3CN(c4ccnc(-c5cnc6ccc(C(F)(F)F)cn56)n4)CCN3)cn2)CC1 [I-433, (R)-1-(4-(4-(2-(6-(trifluoromethyl)imidazo[1,2-a]pyridin-3-yl)pyrimidin-4-yl)piperazin-2-yl)-1H-pyrazole-1-carbonyl)cyclopropane-1-carbonitrile]	0.01 to 0.1
CC(C)(C(N)=O)C1CCCN(c2ccnc(-c3cnc4ccc(Cl)cn34)n2)C1 (centres unmarked) [I-309, 2-(1-(2-(6-chloroimidazo[1,2-a]pyridin-3-yl)pyrimidin-4-yl)piperidin-3-yl)-2-methylpropanamide]	0.1 to 1
C[C@@H]1CN(c2ccnc(-c3cnc4ccc(C(F)(F)F)cn34)n2)C[C@@H](C(N)=O)O1 [I-265, (2S,6R)-6-methyl-4-(2-(6-(trifluoromethyl)imidazo[1,2-a]pyridin-3-yl)pyrimidin-4-yl)morpholine-2-carboxamide]	0.01 to 0.1
CC(C)(C)OC(=O)N1CCN(c2ccnc(-c3cnc4ccc(C(F)(F)F)cn34)n2)CC1C(N)=O (centres unmarked) [I-207, tert-butyl 2-carbamoyl-4-(2-(6-(trifluoromethyl)imidazo[1,2-a]pyridin-3-yl)pyrimidin-4-yl)piperazine-1-carboxylate]	0.1 to 1
Cc1cc(-c2cnc3ccc(Cl)cn23)nc(N2C[C@H](C)C[C@H](N=S(C)(C)=O)C2)n1 [I-168, (((3 S,5R)-1-(4-(6-chloroimidazo[1,2-a]pyridin-3-yl)-6-methylpyrimidin-2-yl)-5-methylpiperidin-3-yl)imino)dimethyl-λ6-sulfanone]	0.01 to 0.1
Clc1ccc2ncc(-c3nccc(N4CCCC5(CNC5)C4)n3)n2c1 [I-299, 6-(2-(6-chloroimidazo[1,2-a]pyridin-3-yl)pyrimidin-4-yl)-2,6-diazaspiro[3.5]nonane]	0.1 to 1
Cc1noc([C@@H]2CN(c3ccnc(-c4cnc5cc(F)c(C6CC6)cn45)n3)C[C@H](C)O2)n1 [I-341, (2S,6S)-4-(2-(6-cyclopropyl-7-fluoroimidazo[1,2-a]pyridin-3-yl)pyrimidin-4-yl)-2-methyl-6-(3-methyl-1,2,4-oxadiazol-5-yl)morpholine]	0.1 to 1
CC(C)(C)OC(=O)N1CC2(C1)CN(c1ccnc(-c3cnc4ccc(C(F)(F)F)cn34)n1)CC(C)(C)O2 [I-292, tert-butyl 6,6-dimethyl-8-(2-(6-(trifluoromethyl)imidazo[1,2-a]pyridin-3-yl)pyrimidin-4-yl)-5-oxa-2,8-diazaspiro[3.5]nonane-2-carboxylate]	0.1 to 1

The next lines start with the values.

IC50 [µM]	Compound
0.1 to 1	C[C@H]1[C@@H](c2cn[nH]c2)NCCN1c1ccnc(-c2cnc3ccc(C(F)(F)F)cn23)n1 [I-534, 3-(4-((2 S,3R)-2-methyl-3-(1H-pyrazol-4-yl)piperazin-1-yl)pyrimidin-2-yl)-6-(trifluoromethyl)imidazo[1,2-a]pyridine]
0.01 to 0.1	Cc1nnc(C)n1[C@@H]1C[C@@H](C)CN(c2nccc(-c3cnc4ccc(C(F)(F)F)cn34)n2)C1 [I-467, 3-(2-((3R,5R)-3-(3,5-dimethyl-4H-1,2,4-triazol-4-yl)-5-methylpiperidin-1-yl)pyrimidin-4-yl)-6-(trifluoromethyl)imidazo[1,2-a]pyridine]
0.1 to 1	C[C@@H]1CN(c2ccnc(-c3cnc4ccc(C(F)(F)F)cn34)n2)C[C@H](C)N1CC1CCOCC1 [I-462, 3-(4-(cis-3,5-dimethyl-4-((tetrahydro-2H-pyran-4-yl)methyl)piperazin-1-yl)pyrimidin-2-yl)-6-(trifluoromethyl)imidazo[1,2-a]pyridine]
0.1 to 1	C[C@H]1[C@H](c2cn[nH]c2)NCCN1c1ccnc(-c2cnc3ccc(C(F)(F)F)cn23)n1 [I-535, 3-(4-((2S,3 S)-2-methyl-3-(1H-pyrazol-4-yl)piperazin-1-yl)pyrimidin-2-yl)-6-(trifluoromethyl)imidazo[1,2-a]pyridine]
0.01 to 0.1	O=C(N1CCN(c2ccnc(-c3cnc4ccc(C(F)(F)F)cn34)n2)CC1c1cn[nH]c1)C1(C(F)F)CC1 (centres unmarked) [I-488, (2-(1H-pyrazol-4-yl)-4-(2-(6-(trifluoromethyl)imidazo[1,2-a]pyridin-3-yl)pyrimidin-4-yl)piperazin-1-yl)(1-(difluoromethyl)cyclopropyl)methanone]
0.1 to 1	CC(C)(O)C(=O)N1CCN(c2ccnc(-c3cnc4ccc(C(F)(F)F)cn34)n2)CC1c1cn[nH]c1 (centres unmarked) [I-514, 1-(2-(1H-pyrazol-4-yl)-4-(2-(6-(trifluoromethyl)imidazo[1,2-a]pyridin-3-yl)pyrimidin-4-yl)piperazin-1-yl)-2-hydroxy-2-methylpropan-1-one]
0.01 to 0.1	Cc1nnc(C)n1[C@@H]1C[C@H](C)CN(c2nccc(-c3cnc4ccc(C(F)(F)F)cn34)n2)C1 [I-463, 3-(2-((3R,5S)-3-(3,5-dimethyl-4H-1,2,4-triazol-4-yl)-5-methylpiperidin-1-yl)pyrimidin-4-yl)-6-(trifluoromethyl)imidazo[1,2-a]pyridine]
0.1 to 1	C[C@@H]1CN(c2ccnc(-c3cnc4ccc(C(F)(F)F)cn34)n2)C[C@H](C)N1C(=O)C1(C)CC1 [I-486, (cis-2,6-dimethyl-4-(2-(6-(trifluoromethyl)imidazo[1,2-a]pyridin-3-yl)pyrimidin-4-yl)piperazin-1-yl)(1-methylcyclopropyl)methanone]
0.1 to 1	C[C@@H]1CN(c2ccnc(-c3cnc4ccc(C(F)(F)F)cn34)n2)C[C@H](C)N1C(=O)c1cc2n(n1)CCOC2 [I-513, (6,7-dihydro-4H-pyrazolo[5,1-c][1,4]oxazin-2-yl)(cis-2,6-dimethyl-4-(2-(6-(trifluoromethyl)imidazo[1,2-a]pyridin-3-yl)pyrimidin-4-yl)piperazin-1-yl)methanone]

Same assay, conditions: Ki(app); 280 μM ATP, 200 μM (RS)7 peptide, 4 nM GCN2, 25° C.

Ki [µM]	Compound
0.1 to 1	CS(=O)(=O)N1CCC2(CCCN2c2ccnc(-c3cnc4ccc(C(F)(F)F)cn34)n2)CC1 [I-7, 8-Methylsulfonyl-1-[2-[6-(trifluoromethyl)imidazo[1,2-a]pyridin-3-yl]pyrimidin-4-yl]-1,8-diazaspiro[4.5]decane]
0.1 to 1	CS(C)(=O)=NC1CCCN(c2ccnc(-c3cnc4ccc(Cl)cn34)n2)C1 (centres unmarked) [I-30, ((1-(2-(6-Chloroimidazo[1,2-a]pyridin-3-yl)pyrimidin-4-yl)piperidin-3-yl)imino)dimethyl-λ^6-sulfanone]
0.1 to 1	N[C@H]1CCCN(c2ccnc(-c3cnc4ccc(Cl)cn34)n2)C1 [I-87, (3S)-1-(2-{6-chloroimidazo[1,2-a]pyridine-3-yl}pyrimidin-4-yl)piperidin-3-amine]
